The test system of experiment [1] is K562 cells. The experiment can be described thus: Cellular proliferation, [3H]thymidine uptake. Type of experiment: cell-based. To be noted: Homo sapiens, K562, read-out: IC50, K562 cells proliferation. How it is done:
(§1) The immortalized human hematopoietic Philadelphia chromosome-positive cytokine independent R10(−) M07e^p210 cell line (46) was maintained in Iscove's modified Dulbecco's medium (Life Technologies, Inc., Grand Island, N.Y.) containing 10% FCS (Hyclone, Logan, Utah). The parental M07e megakaryoblastic cell line was a kind gift of Brian Druker and was maintained in the presence of 50 ng/mL kit ligand (SCF) as described (46-47) K562 was obtained from the ATCC. […] Tumor cell cultures were maintained in a humidified atmosphere with 5% CO2 at 37° C. (NuAire).
(§2) Data points for all assays were obtained in triplicate, and background incorporation from cell-free wells was determined and subtracted from all data points. The data was analyzed using a non-linear regression fit to a sigmoidal dose-response curve using Prism 4 (GraphPad Software, Inc).

Experiment [2] relates to R10 neg cells (MO7e/p210^bcr-abl). Briefly: Cellular proliferation, [3H]thymidine uptake. It is filed as cell-based. Particulars: Homo sapiens, read-out: IC50, R10 neg cells (MO7e/p210^bcr-abl) proliferation. How it is done: as §1, §2
Experiment [3] concerns the target ABL (Homo sapiens, UniProt P00519). Type of experiment: biochemical. To be noted: mean of three experiments; read-out: IC50, Abl protein. Also on record: purchased Invitrogen. How it is done: (§3) Kinase was preincubated with inhibitor at 37° C. for 10 min prior to starting the reaction upon addition of ATP; Assay was carried out in 384 well clear plates (Corning) and absorbance was measured on SpectraMax plate reader (Molecular Devices). Reaction rates were plotted against inhibitor concentration and fitted using SigmaPlot 9.0 (Systat Software Inc.).

The subject of experiment [4] is M07e cells. Briefly: Cellular proliferation, [3H]thymidine uptake, Kit ligand dependent growth. Type of experiment: cell-based. Particulars: Homo sapiens, M-07e, read-out: IC50, M07e cells proliferation. The protocol:
The immortalized human hematopoietic Philadelphia chromosome-positive cytokine independent R10(−) M07e^p210 cell line (46) was maintained in Iscove's modified Dulbecco's medium (Life Technologies, Inc., Grand Island, N.Y.) containing 10% FCS (Hyclone, Logan, Utah). The parental M07e megakaryoblastic cell line was a kind gift of Brian Druker and was maintained in the presence of 50 ng/mL kit ligand (SCF) as described (46-47) K562 was obtained from the ATCC. K562 was maintained in suspension in 90% RPMI 1640 medium supplemented with 10% FBS, 2 mM L-glutamine, 10 mM HEPES, 1 mM sodium pyruvate, 1.5 g/L sodium bicarbonate, 4.5 g/L […], 10% FBS, 100 IU/mL penicillin and 100 μg/ml streptomycin. Tumor cell cultures were maintained in a humidified atmosphere with 5% CO2 at 37° C. (NuAire).
. Data points for all assays were obtained in triplicate, and background incorporation from cell-free wells was determined and subtracted from all data points. The data was analyzed using a non-linear regression fit to a sigmoidal dose-response curve using Prism 4 (GraphPad Software, Inc).

For experiment [5], the target named is T1, SRC (Homo sapiens, UniProt P12931). Briefly: biochemical. From the text: An ELISA-based assay was used in which the phosphorylation of an oligopeptide substrate was detected by an HRP-conjugated anti-p-Tyr (PY20) probe.
Experiment [6] addresses T1, SRC. Type of experiment: biochemical. To be noted: read-out: IC50, Src protein. The protocol:
as §3

Read-outs that look alike come from different tables or passages of the source.

T1 sequence (P12931 whole entry): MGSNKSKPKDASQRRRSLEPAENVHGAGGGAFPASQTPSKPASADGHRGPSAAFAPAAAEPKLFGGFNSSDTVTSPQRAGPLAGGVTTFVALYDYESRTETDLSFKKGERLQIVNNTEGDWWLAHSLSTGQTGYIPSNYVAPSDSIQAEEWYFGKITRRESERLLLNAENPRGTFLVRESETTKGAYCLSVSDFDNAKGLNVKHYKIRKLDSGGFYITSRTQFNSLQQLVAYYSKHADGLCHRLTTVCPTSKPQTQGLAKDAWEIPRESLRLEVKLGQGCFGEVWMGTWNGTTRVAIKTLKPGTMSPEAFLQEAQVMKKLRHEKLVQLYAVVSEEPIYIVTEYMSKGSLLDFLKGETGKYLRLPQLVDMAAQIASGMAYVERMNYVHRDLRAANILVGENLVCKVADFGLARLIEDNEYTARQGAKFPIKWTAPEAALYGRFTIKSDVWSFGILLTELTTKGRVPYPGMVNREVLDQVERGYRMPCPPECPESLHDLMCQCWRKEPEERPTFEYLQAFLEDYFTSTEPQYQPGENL
Chain of ABL (P00519 whole entry): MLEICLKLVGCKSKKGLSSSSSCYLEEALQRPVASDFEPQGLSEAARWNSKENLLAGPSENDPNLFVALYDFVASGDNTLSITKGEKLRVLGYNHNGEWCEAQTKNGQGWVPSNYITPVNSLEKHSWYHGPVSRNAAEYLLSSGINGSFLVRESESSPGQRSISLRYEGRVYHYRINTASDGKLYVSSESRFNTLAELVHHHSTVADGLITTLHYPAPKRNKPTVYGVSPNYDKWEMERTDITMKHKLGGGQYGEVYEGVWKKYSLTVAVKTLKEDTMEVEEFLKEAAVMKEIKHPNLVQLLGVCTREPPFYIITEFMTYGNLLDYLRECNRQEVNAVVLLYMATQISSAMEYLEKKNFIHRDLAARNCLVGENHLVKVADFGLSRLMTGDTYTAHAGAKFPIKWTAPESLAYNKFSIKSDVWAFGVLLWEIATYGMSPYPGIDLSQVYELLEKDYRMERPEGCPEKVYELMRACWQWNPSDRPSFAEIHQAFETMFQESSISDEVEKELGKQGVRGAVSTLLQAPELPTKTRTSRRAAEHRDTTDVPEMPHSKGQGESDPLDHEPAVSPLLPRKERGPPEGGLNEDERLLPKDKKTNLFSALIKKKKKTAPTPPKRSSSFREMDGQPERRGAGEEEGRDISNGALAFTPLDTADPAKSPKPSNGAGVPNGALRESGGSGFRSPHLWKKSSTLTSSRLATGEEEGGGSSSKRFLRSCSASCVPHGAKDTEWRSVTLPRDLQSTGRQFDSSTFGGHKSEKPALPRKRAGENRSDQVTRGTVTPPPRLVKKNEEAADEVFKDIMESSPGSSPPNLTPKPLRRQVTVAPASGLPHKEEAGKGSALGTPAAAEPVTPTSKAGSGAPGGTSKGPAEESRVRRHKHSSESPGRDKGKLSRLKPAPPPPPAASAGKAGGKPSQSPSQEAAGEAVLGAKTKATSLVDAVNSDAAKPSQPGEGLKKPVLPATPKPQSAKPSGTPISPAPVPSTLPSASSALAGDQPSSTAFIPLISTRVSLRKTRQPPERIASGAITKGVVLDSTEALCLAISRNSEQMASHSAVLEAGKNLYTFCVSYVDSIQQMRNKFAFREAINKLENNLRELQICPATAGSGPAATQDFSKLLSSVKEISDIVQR

What is called inhibition is the percentage by which the read-out fell short of the control. For the molecule `Cc1nc(Nc2ncc(C(=O)Nc3c(C)cccc3Cl)s2)cc(N2CCN(CCF)CC2)n1` [Compound 5, N-(2-Chloro-6-methylphenyl)-2-(6-(4-(2-fluoroethyl)piperazin-1-yl)-2-methylpyrimidin-4-ylamino)thiazole-5-carboxamide], the IC50 in experiment [1] is 1.1 nM; in experiment [2], 0.1 nM; in experiment [3], 9.1 ± 0.8 nM; in experiment [4], 1.1 nM; in experiment [5], under 2 nM; in experiment [6], 3.5 ± 2.2 nM. Also, the “% Inhibition of Kinase Activity, SRC” value in experiment [5] (Compound 5 at 10 nM, 0.01 µM) turned out to be 97.5%. Further, the inhibition at 0.01 µM in experiment [5] (read-out: % Inhibition of Kinase Activity, SRC, Compound 5 at 10 nM) was over 97%.
